For data set [1] the following is noted: in vivo; cited from earlier work.

In the case of `Cc1cc(-c2nnn3c2nc(N2CCN(c4ccccn4)C(=O)C2)c2ccccc23)no1`, the melting point (as a rule, the temperature of the solid-liquid transition) was 266 °C (dec.).

Take `Cc1cc(-c2nnn3c2nc(N2CCN(c4cccnc4)C(=O)C2)c2ccccc23)no1`: the melting point is 247 °C (dec.). On the same count and under the same terms, under `Cc1cc(-c2nnn3c2nc(N2CCN(c4ccccc4)C(=O)C2)c2ccccc23)no1` stands 263 °C (dec.). Consider `COC(=O)c1cc2c(cn1)[nH]c1ccccc12` [β-CCM], for which, in data set [1], the “spatial learning in the Morris watermaze” value is recorded as “enhanced spatial learning”.

These data come from patent US7144887B2, “Substituted 1,2,3-triazolo[1,5-a]quinazolines for enhancing cognition” (Merck Sharp & Dohme Ltd., priority 1999, dated 2006).
